{
  "source": "paper PMC5218480",
  "about": "(PLoS ONE, 2017)",
  "test_system": "MV-4-11 cells",
  "assay": "Gene expression microarray analysis (Affymetrix PrimeView) and GSEA",
  "type": "cell-based, human",
  "design": "RFU PODN (11730768_x_at) / Fold change /veh PODN (11730768_x_at) / RFU LINC00158 (11744669_a_at) / Fold change /veh LINC00158 (11744669_a_at) / RFU DUSP10 (11751237_a_at) / Fold change /veh DUSP10 (11751237_a_at) / RFU ID3 (11757404_x_at) / Fold change /veh ID3 (11757404_x_at) / RFU PLEKHG5 (11737974_s_at) / Fold change /veh PLEKHG5 (11737974_s_at) / RFU LRRC4B (11730491_at) / Fold change /veh LRRC4B (11730491_at) / RFU GIMAP4 (11747438_a_at) / Fold change /veh GIMAP4 (11747438_a_at) / RFU KRT8 (11758183_x_at) / Fold change /veh KRT8 (11758183_x_at) / RFU CNN1 (11734310_a_at) / Fold change /veh CNN1 (11734310_a_at) / RFU VPS37D (11726825_at) / Fold change /veh VPS37D (11726825_at) / RFU C10orf10 (11716522_x_at) / Fold change /veh C10orf10 (11716522_x_at) / RFU KIR2DL2 /// KIR2DL4 /// KIR2DL5A /// KIR2DL5B /// KIR2DS1 /// KIR2DS2 /// KIR2DS3 /// KIR2DS4 /// KIR3DL3 /// KIR3DL3 /// KIR3DS1 (11738374_at) / Fold change /veh KIR2DL2 /// KIR2DL4 /// KIR2DL5A /// KIR2DL5B /// KIR2DS1 /// KIR2DS2 /// KIR2DS3 /// KIR2DS4 /// KIR3DL3 /// KIR3DL3 /// KIR3DS1 (11738374_at) / RFU C1QL1 (11718748_at) / Fold change /veh C1QL1 (11718748_at) / RFU TMPRSS4 (11747572_a_at) / Fold change /veh TMPRSS4 (11747572_a_at) / RFU HAMP (11756126_x_at) / Fold change /veh HAMP (11756126_x_at) / RFU RNFT2 (11725882_a_at) / Fold change /veh RNFT2 (11725882_a_at) / RFU NR4A2 (11747474_a_at) / Fold change /veh NR4A2 (11747474_a_at) / RFU ABCC12 (11746883_a_at) / Fold change /veh ABCC12 (11746883_a_at) / RFU TMEM136 (11760407_x_at) / Fold change /veh TMEM136 (11760407_x_at) / RFU CLDN22 /// WWC2 (11732394_at) / Fold change /veh CLDN22 /// WWC2 (11732394_at) / RFU HLA-DPB1 (11760878_x_at) / Fold change /veh HLA-DPB1 (11760878_x_at) / RFU SPINT1 (11716480_a_at) / Fold change /veh SPINT1 (11716480_a_at) / RFU GAP43 (11754022_s_at) / Fold change /veh GAP43 (11754022_s_at) / RFU A4GNT (11735810_at) / Fold change /veh A4GNT (11735810_at) / RFU PRB3 (11715151_x_at) / Fold change /veh PRB3 (11715151_x_at) / RFU TUBB4B (11761932_at) / Fold change /veh TUBB4B (11761932_at) / RFU CAPN14 (11732068_a_at) / Fold change /veh CAPN14 (11732068_a_at) / RFU TMCC2 (11721928_a_at) / Fold change /veh TMCC2 (11721928_a_at) / RFU IRGQ (11745062_a_at) / Fold change /veh IRGQ (11745062_a_at) / RFU FAM174B (11720279_a_at) / Fold change /veh FAM174B (11720279_a_at) / RFU TMPRSS4 (11748680_a_at) / Fold change /veh TMPRSS4 (11748680_a_at) / RFU FAM212B (11763350_a_at) / Fold change /veh FAM212B (11763350_a_at) / RFU PLEKHG5 (11743358_a_at) / Fold change /veh PLEKHG5 (11743358_a_at) / RFU ZSCAN30 (11745921_a_at) / Fold change /veh ZSCAN30 (11745921_a_at) / RFU CMKLR1 (11741424_a_at) / Fold change /veh CMKLR1 (11741424_a_at) / RFU LOC101060620 /// MAPK8IP1 (11723275_at) / Fold change /veh LOC101060620 /// MAPK8IP1 (11723275_at) / RFU SPTSSB (11747773_x_at) / Fold change /veh SPTSSB (11747773_x_at) / RFU PRSS12 (11739890_at) / Fold change /veh PRSS12 (11739890_at) / RFU BIN1 (11741810_x_at) / Fold change /veh BIN1 (11741810_x_at) / RFU WNT11 (11732464_a_at) / Fold change /veh WNT11 (11732464_a_at) / RFU C10orf10 (11716521_a_at) / Fold change /veh C10orf10 (11716521_a_at) / RFU C5orf56 (11738089_at) / Fold change /veh C5orf56 (11738089_at) / RFU CYB561 (11721691_x_at) / Fold change /veh CYB561 (11721691_x_at) / RFU ANKRD19P (11752326_a_at) / Fold change /veh ANKRD19P (11752326_a_at) / RFU OR2T12 /// OR2T33 /// OR2T8 (11738714_s_at) / Fold change /veh OR2T12 /// OR2T33 /// OR2T8 (11738714_s_at) / RFU VCAN (11748164_a_at) / Fold change /veh VCAN (11748164_a_at) / RFU JSRP1 (11732532_at) / Fold change /veh JSRP1 (11732532_at) / RFU KRTAP10-11 (11738290_x_at) / Fold change /veh KRTAP10-11 (11738290_x_at) / RFU MYO3A (11730013_a_at) / Fold change /veh MYO3A (11730013_a_at) / RFU EBF3 (11725865_a_at) / Fold change /veh EBF3 (11725865_a_at) / RFU CAMK2N1 (11719241_x_at) / Fold change /veh CAMK2N1 (11719241_x_at) / RFU C5orf56 (11738088_a_at) / Fold change /veh C5orf56 (11738088_a_at) / RFU OLFML3 (11715873_a_at) / Fold change /veh OLFML3 (11715873_a_at) / RFU LOC100653217 /// NTM (11731650_a_at) / Fold change /veh LOC100653217 /// NTM (11731650_a_at) / RFU MAPK11 (11762145_a_at) / Fold change /veh MAPK11 (11762145_a_at) / RFU FIZ1 (11724087_x_at) / Fold change /veh FIZ1 (11724087_x_at) / RFU OASL (11726364_x_at) / Fold change /veh OASL (11726364_x_at) / RFU SOX15 (11748057_x_at) / Fold change /veh SOX15 (11748057_x_at) / RFU CD79A (11719716_a_at) / Fold change /veh CD79A (11719716_a_at) / RFU HIST1H1D (11736915_at) / Fold change /veh HIST1H1D (11736915_at) / RFU CASKIN2 (11723855_a_at) / Fold change /veh CASKIN2 (11723855_a_at) / RFU LOC730098 (11760151_x_at) / Fold change /veh LOC730098 (11760151_x_at) / RFU OR4N2 (11742367_at) / Fold change /veh OR4N2 (11742367_at) / RFU PRRT2 (11749266_a_at) / Fold change /veh PRRT2 (11749266_a_at) / RFU SNX32 (11753110_a_at) / Fold change /veh SNX32 (11753110_a_at) / RFU CDHR5 (11726645_a_at) / Fold change /veh CDHR5 (11726645_a_at) / RFU RCAN1 (11760418_a_at) / Fold change /veh RCAN1 (11760418_a_at) / RFU FAM167A (11723789_a_at) / Fold change /veh FAM167A (11723789_a_at) / RFU FAM26E (11764081_at) / Fold change /veh FAM26E (11764081_at) / RFU ISYNA1 (11749810_s_at) / Fold change /veh ISYNA1 (11749810_s_at) / RFU ACY1 (11761880_at) / Fold change /veh ACY1 (11761880_at) / RFU 11764098_at / Fold change /veh 11764098_at / RFU SAMD14 (11745864_x_at) / Fold change /veh SAMD14 (11745864_x_at) / RFU NPB (11741838_a_at) / Fold change /veh NPB (11741838_a_at) / RFU TMPRSS6 (11731388_a_at) / Fold change /veh TMPRSS6 (11731388_a_at) / RFU KRTAP10-2 (11738614_at) / Fold change /veh KRTAP10-2 (11738614_at) / RFU ARHGAP8 /// PRR5-ARHGAP8 (11727945_x_at) / Fold change /veh ARHGAP8 /// PRR5-ARHGAP8 (11727945_x_at) / RFU KRTAP5-7 /// NADSYN1 (11734609_at) / Fold change /veh KRTAP5-7 /// NADSYN1 (11734609_at) / RFU RASL12 (11751679_a_at) / Fold change /veh RASL12 (11751679_a_at) / RFU CDKN2B (11736163_a_at) / Fold change /veh CDKN2B (11736163_a_at) / RFU PRF1 (11729649_at) / Fold change /veh PRF1 (11729649_at) / RFU, ZNF638 /// ZNF638-IT1 / Fold change vs veh, ZNF638 /// ZNF638-IT1 / RFU, PANK3 / Fold change vs veh, PANK3 / RFU, SH3YL1 / Fold change vs veh, SH3YL1 / RFU, ZEB2 / Fold change vs veh, ZEB2 / RFU, NRIP1 / Fold change vs veh, NRIP1 / RFU, PTTG1IP / Fold change vs veh, PTTG1IP / RFU, CAPN2 / Fold change vs veh, CAPN2 / RFU, MED14 / Fold change vs veh, MED14 / RFU, SNORA58 / Fold change vs veh, SNORA58 / RFU, C1orf63 / Fold change vs veh, C1orf63 / RFU, LRRFIP1 / Fold change vs veh, LRRFIP1 / RFU, NDUFAF7 / Fold change vs veh, NDUFAF7 / RFU, SLC12A2 / Fold change vs veh, SLC12A2 / RFU, IBTK / Fold change vs veh, IBTK / RFU, ESF1 / Fold change vs veh, ESF1 / Fold change vs veh, TMEM50B / RFU, TAOK1 / Fold change vs veh, TAOK1 / RFU, ACBD3 / Fold change vs veh, ACBD3 / RFU, TMA16 / Fold change vs veh, TMA16 / RFU, RWDD3 / Fold change vs veh, RWDD3 / RFU, BCAT1 / Fold change vs veh, BCAT1 / RFU, EDEM3 / Fold change vs veh, EDEM3 / RFU, TMEM33 / Fold change vs veh, TMEM33 / RFU, WDR75 / Fold change vs veh, WDR75 / RFU, AHCTF1 / Fold change vs veh, AHCTF1 / RFU, TFRC / Fold change vs veh, TFRC / RFU, ZDHHC17 / Fold change vs veh, ZDHHC17 / RFU, NOM1 / Fold change vs veh, NOM1 / RFU, ARL8B / Fold change vs veh, ARL8B / RFU, ZBTB11 / Fold change vs veh, ZBTB11 / RFU, TAMM41 / Fold change vs veh, TAMM41 / RFU, KIAA1704 /// LOC100996395 / Fold change vs veh, KIAA1704 /// LOC100996395 / RFU, ING1 / Fold change vs veh, ING1 / RFU, TRMT61B / Fold change vs veh, TRMT61B / RFU, FUBP3 / Fold change vs veh, FUBP3 / RFU, TP53 / Fold change vs veh, TP53 / RFU, TNKS2 / Fold change vs veh, TNKS2 / RFU, ZFP14 / Fold change vs veh, ZFP14 / RFU, ACTR2 / Fold change vs veh, ACTR2 / RFU, PPP3R1 / Fold change vs veh, PPP3R1 / RFU, PIK3R1 / Fold change vs veh, PIK3R1 / RFU, HNRNPA1 / Fold change vs veh, HNRNPA1 / RFU, RNF170 / Fold change vs veh, RNF170 / RFU, ZNF28 / Fold change vs veh, ZNF28 / RFU, RNGTT / Fold change vs veh, RNGTT / RFU, OGT / Fold change vs veh, OGT / RFU, BRD1 / Fold change vs veh, BRD1 / RFU, MARS / Fold change vs veh, MARS / RFU, ZNF655 / Fold change vs veh, ZNF655 / RFU, FAHD1 / Fold change vs veh, FAHD1 / RFU, BDP1 / Fold change vs veh, BDP1 / RFU, LRRCC1 / Fold change vs veh, LRRCC1 / RFU, ARID1A / Fold change vs veh, ARID1A / RFU, ZNF146 / Fold change vs veh, ZNF146 / RFU, ZNF330 / Fold change vs veh, ZNF330 / RFU, GPN3 / Fold change vs veh, GPN3 / RFU, C9orf123 / Fold change vs veh, C9orf123 / RFU, N4BP2L2 / Fold change vs veh, N4BP2L2 / RFU, ARFIP1 / Fold change vs veh, ARFIP1 / RFU, FAM179B / Fold change vs veh, FAM179B / RFU, BCL10 / Fold change vs veh, BCL10 / RFU, UHRF1BP1L / Fold change vs veh, UHRF1BP1L / RFU, BET1 / Fold change vs veh, BET1 / RFU, CNOT2 / Fold change vs veh, CNOT2 / RFU, ZNF268 / Fold change vs veh, ZNF268 / Fold change vs veh, ZNF507 / RFU, DGCR2 / Fold change vs veh, DGCR2 / RFU, WDSUB1 / Fold change vs veh, WDSUB1 / Fold change vs veh, HSP90B1 /// MIR3652 / RFU, ADSS / Fold change vs veh, ADSS / RFU, GK / Fold change vs veh, GK / RFU, ZNF148 / Fold change vs veh, ZNF148 / RFU, TAF9 / Fold change vs veh, TAF9 / RFU, SLC1A5 / Fold change vs veh, SLC1A5 / RFU, SLMO2 / Fold change vs veh, SLMO2 / RFU, ABCC4 / Fold change vs veh, ABCC4 / RFU, LOC101060439 /// RAP1B / Fold change vs veh, LOC101060439 /// RAP1B / RFU, RFX7 / Fold change vs veh, RFX7 / RFU, GTPBP10 / Fold change vs veh, GTPBP10 / RFU, CNEP1R1 / Fold change vs veh, CNEP1R1 / RFU, BIVM-ERCC5 /// ERCC5 / Fold change vs veh, BIVM-ERCC5 /// ERCC5 / RFU, ILF3 / Fold change vs veh, ILF3 / RFU 11762660_at / Fold change /veh 11762660_at / RFU VCAN (11757783_s_at) / Fold change /veh VCAN (11757783_s_at) / RFU DDX43 (11728927_at) / Fold change /veh DDX43 (11728927_at) / RFU KRT8 (11758188_x_at) / Fold change /veh KRT8 (11758188_x_at) / RFU NKD1 (11759106_at) / Fold change /veh NKD1 (11759106_at) / RFU SRD5A1 (11742802_a_at) / Fold change /veh SRD5A1 (11742802_a_at) / RFU TPSAB1 /// TPSB2 (11721975_s_at) / Fold change /veh TPSAB1 /// TPSB2 (11721975_s_at) / RFU GSTM3 (11746129_a_at) / Fold change /veh GSTM3 (11746129_a_at) / RFU IL23R (11737362_x_at) / Fold change /veh IL23R (11737362_x_at) / RFU TMEM51 (11727254_a_at) / Fold change /veh TMEM51 (11727254_a_at) / RFU PIWIL2 (11732686_x_at) / Fold change /veh PIWIL2 (11732686_x_at) / RFU ORM1 (11744905_x_at) / Fold change /veh ORM1 (11744905_x_at) / RFU CCDC152 (11743942_at) / Fold change /veh CCDC152 (11743942_at) / RFU ECM1 (11717891_a_at) / Fold change /veh ECM1 (11717891_a_at) / RFU IL23R (11748794_a_at) / Fold change /veh IL23R (11748794_a_at) / RFU TNFAIP8L3 (11732012_x_at) / Fold change /veh TNFAIP8L3 (11732012_x_at) / RFU MBOAT4 (11741988_at) / Fold change /veh MBOAT4 (11741988_at) / RFU 11764193_at / Fold change /veh 11764193_at / RFU TMEM53 (11763286_at) / Fold change /veh TMEM53 (11763286_at) / RFU MAGEB2 (11727129_at) / Fold change /veh MAGEB2 (11727129_at) / RFU TMEM200A (11744735_a_at) / Fold change /veh TMEM200A (11744735_a_at) / RFU CCDC152 (11751479_a_at) / Fold change /veh CCDC152 (11751479_a_at) / RFU FAM211A (11726209_a_at) / Fold change /veh FAM211A (11726209_a_at) / RFU RGS16 (11746705_a_at) / Fold change /veh RGS16 (11746705_a_at) / RFU VCAN (11755009_s_at) / Fold change /veh VCAN (11755009_s_at) / RFU RHOB (11743442_s_at) / Fold change /veh RHOB (11743442_s_at) / RFU RGS16 (11720943_a_at) / Fold change /veh RGS16 (11720943_a_at) / RFU RGS16 (11720944_at) / Fold change /veh RGS16 (11720944_at) / RFU, VPS4B / Fold change vs veh, VPS4B / RFU, CREB1 / Fold change vs veh, CREB1 / RFU, DNAJC13 / Fold change vs veh, DNAJC13 / RFU, GNAQ / Fold change vs veh, GNAQ / RFU, CDK5R1 / Fold change vs veh, CDK5R1 / RFU, ZRANB3 / Fold change vs veh, ZRANB3 / RFU, CUL4A / Fold change vs veh, CUL4A / RFU, CCNY / Fold change vs veh, CCNY / RFU, UFL1 / Fold change vs veh, UFL1 / RFU, COG3 / Fold change vs veh, COG3 / RFU, DIAPH2 / Fold change vs veh, DIAPH2 / RFU, SKA2 / Fold change vs veh, SKA2 / RFU, AFF3 / Fold change vs veh, AFF3 / RFU, LMF1 / Fold change vs veh, LMF1 / RFU, IPO11 / Fold change vs veh, IPO11 / RFU, DFFB / Fold change vs veh, DFFB / RFU, FOXP1 / Fold change vs veh, FOXP1 / RFU, CARD8 / Fold change vs veh, CARD8 / RFU, STRN3 / Fold change vs veh, STRN3 / RFU, ADK / Fold change vs veh, ADK / RFU, RASSF2 / Fold change vs veh, RASSF2 / RFU, WIPF1 / Fold change vs veh, WIPF1 / RFU, LARP1B / Fold change vs veh, LARP1B / RFU, RASA1 / Fold change vs veh, RASA1 / RFU, RB1 / Fold change vs veh, RB1 / RFU, PPFIA1 / Fold change vs veh, PPFIA1 / RFU, MAT2A / Fold change vs veh, MAT2A / RFU, CCT5 / Fold change vs veh, CCT5 / RFU, WDR92 / Fold change vs veh, WDR92 / RFU, CUX1 / Fold change vs veh, CUX1 / RFU, TTC7A / Fold change vs veh, TTC7A / RFU, TMEM135 / Fold change vs veh, TMEM135 / RFU, DEPTOR / Fold change vs veh, DEPTOR / RFU, CPM / Fold change vs veh, CPM / RFU, DNAJB6 / Fold change vs veh, DNAJB6 / RFU, CACNA2D3 / Fold change vs veh, CACNA2D3 / RFU, DTX4 / Fold change vs veh, DTX4 / RFU, TFCP2 / Fold change vs veh, TFCP2 / RFU, GMCL1 /// GMCL1P1 / Fold change vs veh, GMCL1 /// GMCL1P1 / RFU, AEBP2 / Fold change vs veh, AEBP2 / RFU, SNHG1 /// SNORD22 /// SNORD25 /// SNORD26 /// SNORD27 /// SNORD28 /// SNORD29 /// SNORD31 / Fold change vs veh, SNHG1 /// SNORD22 /// SNORD25 /// SNORD26 /// SNORD27 /// SNORD28 /// SNORD29 /// SNORD31 / Fold change (Aza/veh), C12orf56 (ProbeSet 11735607_a_at) / Fold change (ACY-1035/veh), C12orf56 (ProbeSet 11735607_a_at) / Fold change (Aza/veh), FGFR1OP (ProbeSet 11751329_s_at) / Fold change (ACY-1035/veh), FGFR1OP (ProbeSet 11751329_s_at) / Fold change (Aza/veh), VPS36 (ProbeSet 11739960_a_at) / Fold change (ACY-1035/veh), VPS36 (ProbeSet 11739960_a_at) / RFU SYPL1 (11715823_x_at) / Fold change /veh SYPL1 (11715823_x_at) / RFU IGFBP7 (11715501_s_at) / Fold change /veh IGFBP7 (11715501_s_at) / RFU REEP3 (11722064_at) / Fold change /veh REEP3 (11722064_at) / RFU IGLL1 (11728026_x_at) / Fold change /veh IGLL1 (11728026_x_at): dose or concentration left out as unconfirmed",
  "details": "MV-4-11 cells, 48 hours",
  "data": [
    {"smiles": "Nc1ncn([C@@H]2O[C@H](CO)[C@@H](O)[C@H]2O)c(=O)n1", "note": "[azacitidine]", "values": [
      {"measurement": "RFU GSTM3 (11746129_a_at)", "value": 15.07, "unit": "RFU"}
    ]}
  ]
}
